Target: eIF-2-alpha kinase GCN2 (Homo sapiens, UniProt Q9P2K8)
Assay: Enzyme Inhibition Assay: An assay buffer containing GCN2 kinase and (RS)7 was prepared. 4.7 μL of this stock solution was placed per well of a black, low volume, 384-well microtitre plate (e.g. catalogue number 3676, Corning Inc., NY). To this was added […] of DMSO containing serial dilutions of the test compound (typical final concentrations of test compound were 0 to 8 μM). The plate was incubated for 10 minutes at 25° C. prior to the addition of 4.7 μL of ATP stock buffer to initiate the enzyme reaction. The reaction was allowed to proceed for 1 hour at 25° C., prior to the addition of 10 μL detection buffer (consisting of appropriate concentrations of ADP2 antibody and ADP Alexa633 tracer in 1× stop and detect buffer as supplied by BellBrook Labs). The reaction was left to incubate for 1 hour at 25° C., prior to measuring the fluorescence polarisation signal (mP) in each well using a PHERAstar FS reader (BMG Labtech, Germany).

Chain of eIF-2-alpha kinase GCN2 (Q9P2K8 whole entry): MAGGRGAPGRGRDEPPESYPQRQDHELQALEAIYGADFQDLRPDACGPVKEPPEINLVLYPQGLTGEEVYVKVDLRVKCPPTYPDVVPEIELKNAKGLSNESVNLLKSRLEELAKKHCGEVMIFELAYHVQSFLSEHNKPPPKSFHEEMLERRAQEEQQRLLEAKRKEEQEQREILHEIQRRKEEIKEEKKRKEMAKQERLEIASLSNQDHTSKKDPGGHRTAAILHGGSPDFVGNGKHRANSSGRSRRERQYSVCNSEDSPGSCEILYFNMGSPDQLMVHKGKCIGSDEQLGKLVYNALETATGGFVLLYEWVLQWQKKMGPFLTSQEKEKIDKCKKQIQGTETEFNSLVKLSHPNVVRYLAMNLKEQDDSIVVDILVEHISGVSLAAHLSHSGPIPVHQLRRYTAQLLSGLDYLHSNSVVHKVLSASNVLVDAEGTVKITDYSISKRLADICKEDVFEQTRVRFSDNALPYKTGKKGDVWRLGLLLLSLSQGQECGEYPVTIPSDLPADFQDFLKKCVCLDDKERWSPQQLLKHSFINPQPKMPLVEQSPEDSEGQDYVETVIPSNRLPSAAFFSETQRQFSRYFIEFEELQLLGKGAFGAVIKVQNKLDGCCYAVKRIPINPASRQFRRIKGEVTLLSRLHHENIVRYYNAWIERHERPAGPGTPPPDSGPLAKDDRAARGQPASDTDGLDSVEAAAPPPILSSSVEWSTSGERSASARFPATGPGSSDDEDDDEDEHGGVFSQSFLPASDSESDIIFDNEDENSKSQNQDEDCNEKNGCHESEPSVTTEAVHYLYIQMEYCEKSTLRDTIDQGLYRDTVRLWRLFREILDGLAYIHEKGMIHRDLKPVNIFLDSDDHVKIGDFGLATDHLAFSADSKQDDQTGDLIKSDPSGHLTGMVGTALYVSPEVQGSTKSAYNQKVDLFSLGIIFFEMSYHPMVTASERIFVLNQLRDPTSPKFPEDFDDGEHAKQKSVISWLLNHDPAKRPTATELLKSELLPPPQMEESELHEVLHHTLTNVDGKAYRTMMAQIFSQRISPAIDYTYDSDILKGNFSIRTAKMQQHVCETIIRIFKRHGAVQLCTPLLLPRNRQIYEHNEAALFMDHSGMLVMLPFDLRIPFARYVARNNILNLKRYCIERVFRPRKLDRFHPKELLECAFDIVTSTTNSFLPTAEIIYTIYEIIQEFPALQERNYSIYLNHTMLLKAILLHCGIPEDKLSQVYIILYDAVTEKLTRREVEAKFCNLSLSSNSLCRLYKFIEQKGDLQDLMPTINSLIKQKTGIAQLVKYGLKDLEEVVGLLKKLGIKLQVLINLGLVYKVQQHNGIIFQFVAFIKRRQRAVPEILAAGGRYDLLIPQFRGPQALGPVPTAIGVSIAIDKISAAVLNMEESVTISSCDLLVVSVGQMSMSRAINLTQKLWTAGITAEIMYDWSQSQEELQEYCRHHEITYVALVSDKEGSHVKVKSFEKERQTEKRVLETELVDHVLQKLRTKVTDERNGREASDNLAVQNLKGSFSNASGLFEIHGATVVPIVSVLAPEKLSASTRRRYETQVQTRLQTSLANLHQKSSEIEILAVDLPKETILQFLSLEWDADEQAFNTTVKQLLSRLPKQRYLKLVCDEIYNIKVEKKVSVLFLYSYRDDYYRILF

Ki [nM]	Structure (SMILES)
< 10	Cc1[nH]ncc1[C@@H]1CN(c2nccc(-c3cnc4ccc(C(F)(F)F)cn34)n2)C[C@H](C)O1
< 10	C[C@H]1C[C@@H](c2cn[nH]c2)CN(c2nccc(-c3cnc4ccc(C(F)(F)F)cn34)n2)C1 (mixture of isomers)
< 10	Cc1[nH]ncc1[C@H]1CN(c2nccc(-c3cnc4ccc(C(F)(F)F)cn34)n2)C[C@@H](C)O1 (relative stereo)
< 10	Cc1n[nH]cc1[C@H]1CN(c2ccnc(-c3cnc4ccc(C(F)(F)F)cn34)n2)C[C@@H](C)O1 (relative stereo)
< 10	C[C@@H]1CN(c2nccc(-c3cnc4ccc(C(F)(F)F)cn34)n2)C[C@H](c2cn[nH]c2)O1 (relative stereo)

— ChEMBL document CHEMBL5728000, “GCN2 inhibitors and uses thereof” (2020)
